Data published in the supplement of paper PMC8671470.

Each molecule was assayed on NOMO-1 (assay: cell viability (% survival relative to DMSO control, bortezomib = 0%); higher = less cytotoxic). Details: 1 nM; 72 h.
Method in brief: (§1)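 After 72 h at 37 °C with 5% CO2, cell viability in 384-well plates was measured by CellTiter-Glo luminescence. The plates held compounds pre-printed at 1, 10, 100, 1000 or 10000 nM in duplicate, and cells from 10 AML and 5 CML lines seeded at densities titrated to linear growth. Percent survival is the duplicate mean, normalised to vehicle as 100% and a 10 µM positive control as 0%.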

Structure (SMILES) | cell viability [%]
N[C@@H](CCC(=O)N[C@@H](CS)C(=O)NCC(=O)O)C(=O)O [Glutathione] | 98.9
Clc1cc(Cl)c(OCC#CI)cc1Cl [Haloprogin] | 109
O=c1[nH]c(=O)n([C@H]2C[C@H](O)[C@@H](CO)O2)cc1I [Idoxuridine] | 102
CC1Cc2ccccc2N1NC(=O)c1ccc(Cl)c(S(N)(=O)=O)c1 (centres undefined) [Indapamide] | 98.2
NS(=O)(=O)c1ccc(S(=O)(=O)Nc2cccc3c(Cl)c[nH]c23)cc1 [Indisulam] | 102
COc1ccc2c(c1)c(CC(=O)O)c(C)n2C(=O)c1ccc(Cl)cc1 [Indomethacine] | 98.3
Cn1cc(C[C@@H](N)C(=O)O)c2ccccc21 [Indoximod] | 112

Same assay, conditions: 10 nM; 72 h

Structure (SMILES) | cell viability [%]
OC[C@H]1N[C@@H](c2c[nH]c3c(O)ncnc23)[C@H](O)[C@@H]1O [Forodesine] | 92.3
O=c1oc2c(cc1O)oc(=O)c1cc(O)c(O)c(O)c12 [Galloflavin] | 97.7
Nc1ccn([C@@H]2O[C@H](CO)[C@@H](O)C2(F)F)c(=O)n1 [Gemcitabine] | 24.5
N[C@@H](CCC(=O)N[C@@H](CS)C(=O)NCC(=O)O)C(=O)O [Glutathione] | 105
Clc1cc(Cl)c(OCC#CI)cc1Cl [Haloprogin] | 103
O=c1[nH]c(=O)n([C@H]2C[C@H](O)[C@@H](CO)O2)cc1I [Idoxuridine] | 92.2
CC1Cc2ccccc2N1NC(=O)c1ccc(Cl)c(S(N)(=O)=O)c1 (centres undefined) [Indapamide] | 103
NS(=O)(=O)c1ccc(S(=O)(=O)Nc2cccc3c(Cl)c[nH]c23)cc1 [Indisulam] | 98.4
COc1ccc2c(c1)c(CC(=O)O)c(C)n2C(=O)c1ccc(Cl)cc1 [Indomethacine] | 107
Cn1cc(C[C@@H](N)C(=O)O)c2ccccc21 [Indoximod] | 96.2

Same assay, conditions: 100 nM; 72 h

Structure (SMILES) | cell viability [%]
OC[C@H]1N[C@@H](c2c[nH]c3c(O)ncnc23)[C@H](O)[C@@H]1O [Forodesine] | 97.3
O=c1oc2c(cc1O)oc(=O)c1cc(O)c(O)c(O)c12 [Galloflavin] | 99.1
Nc1ccn([C@@H]2O[C@H](CO)[C@@H](O)C2(F)F)c(=O)n1 [Gemcitabine] | 3.18
N[C@@H](CCC(=O)N[C@@H](CS)C(=O)NCC(=O)O)C(=O)O [Glutathione] | 91.1
Clc1cc(Cl)c(OCC#CI)cc1Cl [Haloprogin] | 109
O=c1[nH]c(=O)n([C@H]2C[C@H](O)[C@@H](CO)O2)cc1I [Idoxuridine] | 97.8
CC1Cc2ccccc2N1NC(=O)c1ccc(Cl)c(S(N)(=O)=O)c1 (centres undefined) [Indapamide] | 101
NS(=O)(=O)c1ccc(S(=O)(=O)Nc2cccc3c(Cl)c[nH]c23)cc1 [Indisulam] | 105
COc1ccc2c(c1)c(CC(=O)O)c(C)n2C(=O)c1ccc(Cl)cc1 [Indomethacine] | 100
Cn1cc(C[C@@H](N)C(=O)O)c2ccccc21 [Indoximod] | 95.6

Same assay, conditions: 1000 nM; 72 h

Structure (SMILES) | cell viability [%]
OC[C@H]1N[C@@H](c2c[nH]c3c(O)ncnc23)[C@H](O)[C@@H]1O [Forodesine] | 96.9
O=c1oc2c(cc1O)oc(=O)c1cc(O)c(O)c(O)c12 [Galloflavin] | 102
Nc1ccn([C@@H]2O[C@H](CO)[C@@H](O)C2(F)F)c(=O)n1 [Gemcitabine] | 1.37
N[C@@H](CCC(=O)N[C@@H](CS)C(=O)NCC(=O)O)C(=O)O [Glutathione] | 94.2
Clc1cc(Cl)c(OCC#CI)cc1Cl [Haloprogin] | 98.2
O=c1[nH]c(=O)n([C@H]2C[C@H](O)[C@@H](CO)O2)cc1I [Idoxuridine] | 95.3
CC1Cc2ccccc2N1NC(=O)c1ccc(Cl)c(S(N)(=O)=O)c1 (centres undefined) [Indapamide] | 101
NS(=O)(=O)c1ccc(S(=O)(=O)Nc2cccc3c(Cl)c[nH]c23)cc1 [Indisulam] | 63.2
COc1ccc2c(c1)c(CC(=O)O)c(C)n2C(=O)c1ccc(Cl)cc1 [Indomethacine] | 110
Cn1cc(C[C@@H](N)C(=O)O)c2ccccc21 [Indoximod] | 117

Same assay, conditions: 10000 nM; 72 h

Structure (SMILES) | cell viability [%]
OC[C@H]1N[C@@H](c2c[nH]c3c(O)ncnc23)[C@H](O)[C@@H]1O [Forodesine] | 87.4
O=c1oc2c(cc1O)oc(=O)c1cc(O)c(O)c(O)c12 [Galloflavin] | 106
Nc1ccn([C@@H]2O[C@H](CO)[C@@H](O)C2(F)F)c(=O)n1 [Gemcitabine] | 0.238
N[C@@H](CCC(=O)N[C@@H](CS)C(=O)NCC(=O)O)C(=O)O [Glutathione] | 106
Clc1cc(Cl)c(OCC#CI)cc1Cl [Haloprogin] | 0.243
O=c1[nH]c(=O)n([C@H]2C[C@H](O)[C@@H](CO)O2)cc1I [Idoxuridine] | 84.8
CC1Cc2ccccc2N1NC(=O)c1ccc(Cl)c(S(N)(=O)=O)c1 (centres undefined) [Indapamide] | 102
NS(=O)(=O)c1ccc(S(=O)(=O)Nc2cccc3c(Cl)c[nH]c23)cc1 [Indisulam] | 24.8
COc1ccc2c(c1)c(CC(=O)O)c(C)n2C(=O)c1ccc(Cl)cc1 [Indomethacine] | 95.7
Cn1cc(C[C@@H](N)C(=O)O)c2ccccc21 [Indoximod] | 99

These molecules were tested on K-562 in the same assay as above. Details: 1 nM; 72 h.
Method in brief: as §1

Structure (SMILES) | cell viability [%]
OC[C@H]1N[C@@H](c2c[nH]c3c(O)ncnc23)[C@H](O)[C@@H]1O [Forodesine] | 94.9
O=c1oc2c(cc1O)oc(=O)c1cc(O)c(O)c(O)c12 [Galloflavin] | 107
Nc1ccn([C@@H]2O[C@H](CO)[C@@H](O)C2(F)F)c(=O)n1 [Gemcitabine] | 92.6
N[C@@H](CCC(=O)N[C@@H](CS)C(=O)NCC(=O)O)C(=O)O [Glutathione] | 94.4
Clc1cc(Cl)c(OCC#CI)cc1Cl [Haloprogin] | 93.8
O=c1[nH]c(=O)n([C@H]2C[C@H](O)[C@@H](CO)O2)cc1I [Idoxuridine] | 85.6
CC1Cc2ccccc2N1NC(=O)c1ccc(Cl)c(S(N)(=O)=O)c1 (centres undefined) [Indapamide] | 112
NS(=O)(=O)c1ccc(S(=O)(=O)Nc2cccc3c(Cl)c[nH]c23)cc1 [Indisulam] | 113
COc1ccc2c(c1)c(CC(=O)O)c(C)n2C(=O)c1ccc(Cl)cc1 [Indomethacine] | 95.2
Cn1cc(C[C@@H](N)C(=O)O)c2ccccc21 [Indoximod] | 103

Same assay, conditions: 10 nM; 72 h

Structure (SMILES) | cell viability [%]
OC[C@H]1N[C@@H](c2c[nH]c3c(O)ncnc23)[C@H](O)[C@@H]1O [Forodesine] | 94.4
O=c1oc2c(cc1O)oc(=O)c1cc(O)c(O)c(O)c12 [Galloflavin] | 105
